Assay results published in ChEMBL document CHEMBL5252596, “Synthesis and Cytotoxicity Evaluation of Betulin Cycloolefin Derivatives by Ruthenium-Catalyzed Ring-Closing Metathesis” (J Nat Prod, 2023).

How the values were obtained:
[1] = system: L929; assay: Induction of apoptosis in mouse L929 cells assessed as late apoptotic cells at 10 uM incubated for 24 hrs by Annexin V-PE staining based flow cytometry analysis (reference value: 0.53%); type: functional
[2] = system: L929; assay: Induction of apoptosis in mouse L929 cells assessed as necrotic cells at 10 uM incubated for 24 hrs by Annexin V-PE staining based flow cytometry analysis (reference value: 0.00%); type: functional
[3] = system: HeLa; assay: Induction of apoptosis in human HeLa cells assessed as early apoptotic cells at 10 uM incubated for 24 hrs by Annexin V-PE staining based flow cytometry analysis (reference value: 2.55%); type: functional
[4] = system: L929; assay: Induction of apoptosis in mouse L929 cells assessed as early apoptotic cells at 10 uM incubated for 24 hrs by Annexin V-PE staining based flow cytometry analysis (reference value: 1.47%); type: functional
[5] = system: HeLa; assay: Antiproliferative activity against human HeLa cells assessed as reduction in live cells at 10 uM incubated for 24 hrs by calcein-AM/PI staining based fluorescence microscopic analysis relative to control (reference value: 3.78%); type: functional; design: scale not given: the % may be the effect or the level left
[6] = system: L929; assay: Cytotoxicity against mouse L929 cells assessed as reduction in live cells at 10 uM incubated for 24 hrs by calcein-AM/PI staining based fluorescence microscopic analysis relative to control (reference value: 8.65%); type: toxicity, cell-based; design: scale not given: the % may be the effect or the level left; settings: l929, 24 h
[7] = system: HeLa; assay: Induction of apoptosis in human HeLa cells assessed as late apoptotic cells at 10 uM incubated for 24 hrs by Annexin V-PE staining based flow cytometry analysis (reference value: 0.02%); type: functional
[8] = system: HeLa; assay: Induction of apoptosis in human HeLa cells assessed as viable cells at 10 uM incubated for 24 hrs by Annexin V-PE staining based flow cytometry analysis (reference value: 97.43%); type: functional; settings: read-out: Activity
[9] = system: HeLa; assay: Antiproliferative activity against human HeLa cells assessed as cell growth inhibition at 10 uM incubated for 24 hrs by CCK-8 assay relative to control; type: functional; design: scale not given: the % may be the effect or the level left
[10] = system: L929; assay: Cytotoxicity against mouse L929 cells assessed as reduction in dead cells at 10 uM incubated for 24 hrs by calcein-AM/PI staining based fluorescence microscopic analysis relative to control (reference value: 0.38%); type: toxicity, cell-based; design: scale not given: the % may be the effect or the level left; settings: l929, 24 h
[11] = system: HeLa; assay: Induction of apoptosis in human HeLa cells assessed as necrotic cells at 10 uM incubated for 24 hrs by Annexin V-PE staining based flow cytometry analysis (reference value: 0.00%); type: functional
[12] = Cytotoxicity against mouse L929 cells assessed as cell growth inhibition at 10 uM incubated for 24 hrs by CCK-8 assay relative to control; type: toxicity, cell-based; settings: read-out: Activity
[13] = system: HeLa; assay: Antiproliferative activity against human HeLa cells assessed as reduction in dead cells at 10 uM incubated for 24 hrs by calcein-AM/PI staining based fluorescence microscopic analysis relative to control (reference value: 0.15%); type: functional; design: scale not given: the % may be the effect or the level left
[14] = system: L929; assay: Induction of apoptosis in mouse L929 cells assessed as viable cells at 10 uM incubated for 24 hrs by Annexin V-PE staining based flow cytometry analysis (reference value: 98%); type: functional; settings: read-out: Activity

In the case of `C=CCCC(=O)OC[C@]12CC[C@@H](C(=C)C)[C@@H]1[C@H]1CC[C@@H]3[C@@]4(C)CC[C@H](O)C(C)(C)[C@@H]4CC[C@@]3(C)[C@]1(C)CC2`, the Activity [1] is reported as 5.86%, the Activity [2] is reported as 0% and the Activity [3] is reported as 10.95%. The Activity [4] was 9.38%, the Activity [5] was 1.4% and the Activity [6] was 2.15%. For the same molecule, the Activity [7] was 30.3%, the viability at 10 µM [8] was 58.2% and the Activity [9] was 37%. The Activity [10] was 2.83%, the Activity [11] was 0.53% and the inhibition at 24 h, 10 µM [12] was 29%. For the same molecule, the Activity [13] was 1.02% and the viability at 10 µM [14] was 84.8%.
In the case of `C=CCCCCCCCCC(=O)OC[C@]12CC[C@@H](C(=C)C)[C@@H]1[C@H]1CC[C@@H]3[C@@]4(C)CC[C@H](O)C(C)(C)[C@@H]4CC[C@@]3(C)[C@]1(C)CC2`, the Activity [1] is reported as 4.55%, the Activity [2] is reported as 1.29% and the Activity [3] is reported as 0.98%. It also gave an Activity [4] of 0.75%, an Activity [5] of 2.03% and an Activity [6] of 4.65%. The Activity [7] was 18.58%, the viability at 10 µM [8] was 79% and the Activity [9] was 55%. It also gave an Activity [10] of 1.77%, an Activity [11] of 1.41% and an inhibition at 24 h, 10 µM [12] of 47%. For the same molecule, the Activity [13] was 0.69% and the viability at 10 µM [14] was 82%.
For `C/C1=C/CCCCCCCCC(=O)OC[C@]23CC[C@@H]1[C@@H]2[C@H]1CC[C@@H]2[C@@]4(C)CC[C@H](O)C(C)(C)[C@@H]4CC[C@@]2(C)[C@]1(C)CC3`, the Activity [1] was 5.04%, the Activity [2] was 5.18% and the Activity [3] was 2.66%. For the same molecule, the Activity [4] was 12.6%, the Activity [5] was 1.29% and the Activity [6] was 3.67%. For the same molecule, the Activity [7] was 26.22%, the viability at 10 µM [8] was 70.5% and the Activity [10] was 2.1%. It also gave an Activity [11] of 0.61%, an Activity [13] of 0.91% and a viability at 10 µM [14] of 77.2%.
Work on `C/C1=C/CCC(=O)OC[C@]23CC[C@@H]1[C@@H]2[C@H]1CC[C@@H]2[C@@]4(C)CC[C@H](O)C(C)(C)[C@@H]4CC[C@@]2(C)[C@]1(C)CC3` yielded an Activity [1] of 72.6%, an Activity [2] of 21.59% and an Activity [3] of 5.09%. For the same molecule, the Activity [4] was 0.12%, the Activity [5] was 0.46% and the Activity [6] was 1.71%. For the same molecule, the Activity [7] was 62.84%, the viability at 10 µM [8] was 31.4% and the Activity [10] was 5.76%. It also gave an Activity [11] of 0.65%, an Activity [13] of 1.78% and a viability at 10 µM [14] of 5.69%.
For `C=C(C)[C@@H]1CC[C@]2(CO)CC[C@]3(C)[C@H](CC[C@@H]4[C@@]5(C)CC[C@H](O)C(C)(C)[C@@H]5CC[C@]43C)[C@@H]12` [BETULIN], the Activity [1] was 0.61%, the Activity [2] was 0% and the Activity [3] was 12.16%. The Activity [4] was 2.94%, the Activity [5] was 2.8% and the Activity [6] was 5.19%. For the same molecule, the Activity [7] was 0.03%, the viability at 10 µM [8] was 87.8% and the Activity [9] was 58%. For the same molecule, the Activity [10] was 0.79%, the Activity [11] was 0% and the inhibition at 24 h, 10 µM [12] was 55%. For the same molecule, the Activity [13] was 0.53% and the viability at 10 µM [14] was 96.5%.
